According to PubChem BioAssay AID623893 (Vanderbilt Specialized Chemistry Center, 2012):
The source made the active and inactive calls.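 Rule for the calls: active = fold change in agonist EC50 with compound of 2 or more, a potentiator, or 0.5 or less, a blocker; inactive = fold change strictly between 0.5 and 2.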

Target: Metabotropic glutamate receptor 7 (Rattus norvegicus) (UniProt P35400)
Assay: mGlu7 L-AP4 response modulation check – cell-based, rat, thallium flux, L-AP4 agonist, selectivity assay for mGlu4 lead optimization, profiling panel (AID 623893)
Conditions: mGlu7 cells, at 10 µM

Metabotropic glutamate receptor 7 (Rattus norvegicus), sequence (P35400 whole entry, looked up): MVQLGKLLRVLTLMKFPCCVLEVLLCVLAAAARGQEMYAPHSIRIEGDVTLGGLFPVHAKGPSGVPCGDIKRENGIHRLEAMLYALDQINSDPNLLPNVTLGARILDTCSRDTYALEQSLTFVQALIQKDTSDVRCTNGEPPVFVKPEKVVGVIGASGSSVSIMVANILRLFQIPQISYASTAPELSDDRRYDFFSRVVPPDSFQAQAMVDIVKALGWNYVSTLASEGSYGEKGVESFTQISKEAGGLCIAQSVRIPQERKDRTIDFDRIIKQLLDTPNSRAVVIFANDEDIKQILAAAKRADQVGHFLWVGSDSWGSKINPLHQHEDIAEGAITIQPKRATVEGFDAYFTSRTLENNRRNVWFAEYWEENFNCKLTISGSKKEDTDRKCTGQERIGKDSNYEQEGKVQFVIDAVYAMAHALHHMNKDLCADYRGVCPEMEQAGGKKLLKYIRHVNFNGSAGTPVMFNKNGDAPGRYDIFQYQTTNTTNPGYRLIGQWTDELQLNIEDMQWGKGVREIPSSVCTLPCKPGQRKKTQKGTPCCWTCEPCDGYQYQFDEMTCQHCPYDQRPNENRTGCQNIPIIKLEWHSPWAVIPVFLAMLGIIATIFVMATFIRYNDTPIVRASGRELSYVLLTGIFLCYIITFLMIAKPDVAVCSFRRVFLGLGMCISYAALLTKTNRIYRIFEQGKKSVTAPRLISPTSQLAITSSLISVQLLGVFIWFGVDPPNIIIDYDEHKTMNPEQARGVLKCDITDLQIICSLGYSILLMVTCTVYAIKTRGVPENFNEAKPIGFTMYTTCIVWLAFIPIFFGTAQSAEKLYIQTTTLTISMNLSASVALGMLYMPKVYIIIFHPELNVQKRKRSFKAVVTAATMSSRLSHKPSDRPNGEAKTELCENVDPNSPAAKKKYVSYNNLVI

- fold shift: 1.44 (inactive)
Compound: O=C(Nc1cccc(Cl)c1)c1ccccn1
